# Results from publication doi:10.1101/2021.04.08.439011v1 (biorxiv, 2021).
# Experiments:
# SGK = SGK (Homo sapiens, UniProt O00141); settings: 1 µM; binder
# MST1R = MST1R (Homo sapiens, UniProt Q04912); settings: 1 µM; binder
# VEGFR2 = VEGFR2 (Homo sapiens, UniProt P35968); settings: 1 µM; binder
# GRK1 = GRK1 (Homo sapiens, UniProt Q15835); settings: 1 µM; binder
# WNK3 = WNK3 (Homo sapiens, UniProt Q9BYP7); settings: 1 µM; binder
# PIKFYVE = PIKFYVE (Homo sapiens, UniProt Q9Y2I7); settings: 1 µM; binder
# VPS34 = VPS34 (Homo sapiens, UniProt Q8NEB9); settings: 1 µM; binder
# CDC2L2 = CDC2L2 (Homo sapiens, UniProt Q9UQ88); settings: 1 µM; binder
# PIK3CA(C420R) = PIK3CA(C420R) (Homo sapiens, UniProt P42336, C420R); settings: 1 µM; binder
# PIK3CA(C420R), sequence (P42336 whole entry C420R): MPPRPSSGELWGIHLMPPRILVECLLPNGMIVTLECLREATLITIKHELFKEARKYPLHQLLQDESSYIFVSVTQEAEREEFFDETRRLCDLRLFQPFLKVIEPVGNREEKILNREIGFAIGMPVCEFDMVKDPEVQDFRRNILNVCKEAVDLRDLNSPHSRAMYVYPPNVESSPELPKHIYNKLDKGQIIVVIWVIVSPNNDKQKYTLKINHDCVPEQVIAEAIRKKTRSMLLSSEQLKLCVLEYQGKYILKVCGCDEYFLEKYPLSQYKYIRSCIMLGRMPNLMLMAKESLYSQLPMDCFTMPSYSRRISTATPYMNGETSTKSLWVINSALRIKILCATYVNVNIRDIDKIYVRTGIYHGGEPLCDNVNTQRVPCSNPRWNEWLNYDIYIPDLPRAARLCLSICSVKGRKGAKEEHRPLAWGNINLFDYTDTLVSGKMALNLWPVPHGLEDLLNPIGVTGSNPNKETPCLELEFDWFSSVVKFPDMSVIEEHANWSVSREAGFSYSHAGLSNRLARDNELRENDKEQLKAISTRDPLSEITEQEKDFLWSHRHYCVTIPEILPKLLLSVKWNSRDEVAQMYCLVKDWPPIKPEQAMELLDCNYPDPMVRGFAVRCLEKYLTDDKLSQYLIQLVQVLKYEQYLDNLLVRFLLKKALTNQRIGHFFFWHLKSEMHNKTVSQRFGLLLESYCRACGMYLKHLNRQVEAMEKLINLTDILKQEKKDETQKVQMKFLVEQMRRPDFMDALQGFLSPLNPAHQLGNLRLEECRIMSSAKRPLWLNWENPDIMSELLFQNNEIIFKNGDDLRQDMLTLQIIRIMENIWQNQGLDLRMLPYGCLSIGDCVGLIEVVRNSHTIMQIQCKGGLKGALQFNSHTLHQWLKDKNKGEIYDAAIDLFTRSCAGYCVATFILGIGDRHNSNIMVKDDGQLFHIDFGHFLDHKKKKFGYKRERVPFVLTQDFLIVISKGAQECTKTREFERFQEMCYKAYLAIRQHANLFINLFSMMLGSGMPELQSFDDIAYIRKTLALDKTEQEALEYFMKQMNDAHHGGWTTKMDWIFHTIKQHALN
# KIT(D816H) = KIT(D816H) (Homo sapiens, UniProt P10721, D816H); settings: 1 µM; binder
# CSK = CSK (Homo sapiens, UniProt P41240); settings: 1 µM; binder
# HIPK4 = HIPK4 (Homo sapiens, UniProt Q8NE63); settings: 1 µM; binder
# MAP4K4 = MAP4K4 (Homo sapiens, UniProt O95819); settings: 1 µM; binder
# FLT3(N841I) = FLT3(N841I) (Homo sapiens, UniProt P36888, N841I); settings: 1 µM; binder
# GCN2(Kin.Dom.2,S808G) = GCN2(Kin.Dom.2,S808G) (Homo sapiens, UniProt Q9P2K8, S808G); settings: 1 µM; binder
# PKN1 = PKN1 (Homo sapiens, UniProt Q16512); settings: 1 µM; binder
# PKN1, sequence (Q16512 whole entry): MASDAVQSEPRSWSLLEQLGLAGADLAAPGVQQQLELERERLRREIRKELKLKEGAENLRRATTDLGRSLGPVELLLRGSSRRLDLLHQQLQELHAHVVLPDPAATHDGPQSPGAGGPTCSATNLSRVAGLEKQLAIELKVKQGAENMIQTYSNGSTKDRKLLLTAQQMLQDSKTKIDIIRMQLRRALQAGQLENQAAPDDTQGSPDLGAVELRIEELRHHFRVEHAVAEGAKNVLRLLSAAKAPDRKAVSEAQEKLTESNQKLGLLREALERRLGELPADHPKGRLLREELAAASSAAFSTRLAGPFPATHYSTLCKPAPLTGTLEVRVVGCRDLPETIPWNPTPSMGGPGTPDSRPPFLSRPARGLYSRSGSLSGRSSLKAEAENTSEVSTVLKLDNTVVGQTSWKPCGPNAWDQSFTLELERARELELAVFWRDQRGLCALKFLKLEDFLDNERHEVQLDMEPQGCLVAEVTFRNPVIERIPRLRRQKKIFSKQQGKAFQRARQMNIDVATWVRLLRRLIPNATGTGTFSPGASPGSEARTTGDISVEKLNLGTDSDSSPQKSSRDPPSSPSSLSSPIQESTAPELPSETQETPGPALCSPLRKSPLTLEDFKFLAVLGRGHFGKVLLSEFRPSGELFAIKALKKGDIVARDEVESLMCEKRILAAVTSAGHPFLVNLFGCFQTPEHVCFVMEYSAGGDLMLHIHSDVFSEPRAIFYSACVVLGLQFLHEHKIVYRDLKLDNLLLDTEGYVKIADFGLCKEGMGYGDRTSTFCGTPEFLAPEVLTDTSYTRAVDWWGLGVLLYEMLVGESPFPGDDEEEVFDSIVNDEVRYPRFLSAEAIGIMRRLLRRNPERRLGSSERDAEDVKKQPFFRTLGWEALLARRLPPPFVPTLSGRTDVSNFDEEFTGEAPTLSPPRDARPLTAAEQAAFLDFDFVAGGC
# CDKL3 = CDKL3 (Homo sapiens, UniProt Q8IVW4); settings: 1 µM; binder
# CDKL3, sequence (Q8IVW4 whole entry): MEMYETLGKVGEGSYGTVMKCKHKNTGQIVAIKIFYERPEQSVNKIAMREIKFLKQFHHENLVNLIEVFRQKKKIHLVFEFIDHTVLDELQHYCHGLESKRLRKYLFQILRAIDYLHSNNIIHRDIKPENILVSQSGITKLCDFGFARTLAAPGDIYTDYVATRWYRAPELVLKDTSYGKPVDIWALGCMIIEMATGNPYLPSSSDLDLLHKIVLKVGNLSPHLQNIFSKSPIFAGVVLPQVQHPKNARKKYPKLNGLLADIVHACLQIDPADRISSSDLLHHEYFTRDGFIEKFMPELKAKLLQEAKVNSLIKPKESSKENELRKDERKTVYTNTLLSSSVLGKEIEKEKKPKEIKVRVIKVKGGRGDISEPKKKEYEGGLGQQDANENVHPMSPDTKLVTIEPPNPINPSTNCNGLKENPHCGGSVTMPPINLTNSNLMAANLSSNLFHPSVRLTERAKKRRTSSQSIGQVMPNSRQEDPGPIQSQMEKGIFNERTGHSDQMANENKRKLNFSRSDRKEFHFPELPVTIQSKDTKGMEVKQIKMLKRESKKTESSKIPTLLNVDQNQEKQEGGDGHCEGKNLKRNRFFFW
# MATK = MATK (Homo sapiens, UniProt P42679); settings: 1 µM; binder
# CDK4-cyclinD3 = CDK4-cyclinD3 (Homo sapiens, UniProt P11802); settings: 1 µM; binder
# CDK5 = CDK5 (Homo sapiens, UniProt Q00535); settings: 1 µM; binder
# CDK5, sequence (Q00535 whole entry): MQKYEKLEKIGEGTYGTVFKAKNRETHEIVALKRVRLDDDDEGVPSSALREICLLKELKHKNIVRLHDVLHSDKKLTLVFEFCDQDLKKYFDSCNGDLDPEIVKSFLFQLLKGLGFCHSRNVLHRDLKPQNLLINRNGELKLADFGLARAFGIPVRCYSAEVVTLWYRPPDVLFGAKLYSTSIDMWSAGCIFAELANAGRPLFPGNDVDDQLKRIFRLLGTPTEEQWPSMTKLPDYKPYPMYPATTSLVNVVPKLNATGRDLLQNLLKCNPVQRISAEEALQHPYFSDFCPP
# SRPK2 = SRPK2 (Homo sapiens, UniProt P78362); settings: 1 µM; binder
# SRPK2, sequence (P78362 whole entry): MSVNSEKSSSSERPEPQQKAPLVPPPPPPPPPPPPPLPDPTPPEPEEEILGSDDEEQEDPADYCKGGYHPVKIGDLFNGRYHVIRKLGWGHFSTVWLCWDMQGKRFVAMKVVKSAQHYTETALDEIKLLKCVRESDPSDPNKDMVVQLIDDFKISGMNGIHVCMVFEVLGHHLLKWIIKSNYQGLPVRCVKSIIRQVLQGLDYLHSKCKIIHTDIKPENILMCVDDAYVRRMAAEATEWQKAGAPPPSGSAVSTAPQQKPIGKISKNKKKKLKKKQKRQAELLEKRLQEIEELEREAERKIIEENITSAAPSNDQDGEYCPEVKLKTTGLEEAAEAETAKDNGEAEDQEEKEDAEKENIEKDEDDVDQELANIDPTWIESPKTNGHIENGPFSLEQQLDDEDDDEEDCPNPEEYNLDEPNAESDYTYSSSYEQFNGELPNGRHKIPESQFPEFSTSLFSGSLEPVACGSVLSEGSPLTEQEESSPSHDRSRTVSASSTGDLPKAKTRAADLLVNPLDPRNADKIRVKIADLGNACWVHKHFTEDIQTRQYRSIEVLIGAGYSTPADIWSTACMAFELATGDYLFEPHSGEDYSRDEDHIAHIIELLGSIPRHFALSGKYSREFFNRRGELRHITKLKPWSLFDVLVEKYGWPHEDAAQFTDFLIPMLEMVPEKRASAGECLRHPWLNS
# FGFR3 = FGFR3 (Homo sapiens, UniProt P22607); settings: 1 µM; binder
# AAK1 = AAK1 (Homo sapiens, UniProt Q2M2I8); settings: 1 µM; binder
# ABL1(T315I) = ABL1(T315I) (Homo sapiens, UniProt P00519, T315I); settings: nonphosphorylated; 1 µM; binder
# DMPK = DMPK (Homo sapiens, UniProt Q09013); settings: 1 µM; binder
# TLK2 = TLK2 (Homo sapiens, UniProt Q86UE8); settings: 1 µM; binder
# PIP4K2C = PIP4K2C (Homo sapiens, UniProt Q8TBX8); settings: 1 µM; binder
# NDR1 = NDR1 (Homo sapiens, UniProt Q15208); settings: 1 µM; binder
# EPHA8 = EPHA8 (Homo sapiens, UniProt P29322); settings: 1 µM; binder
# CDK4-cyclinD1 = CDK4-cyclinD1 (Homo sapiens, UniProt P11802); settings: 1 µM; binder
# VEGFR2, sequence (P35968 whole entry): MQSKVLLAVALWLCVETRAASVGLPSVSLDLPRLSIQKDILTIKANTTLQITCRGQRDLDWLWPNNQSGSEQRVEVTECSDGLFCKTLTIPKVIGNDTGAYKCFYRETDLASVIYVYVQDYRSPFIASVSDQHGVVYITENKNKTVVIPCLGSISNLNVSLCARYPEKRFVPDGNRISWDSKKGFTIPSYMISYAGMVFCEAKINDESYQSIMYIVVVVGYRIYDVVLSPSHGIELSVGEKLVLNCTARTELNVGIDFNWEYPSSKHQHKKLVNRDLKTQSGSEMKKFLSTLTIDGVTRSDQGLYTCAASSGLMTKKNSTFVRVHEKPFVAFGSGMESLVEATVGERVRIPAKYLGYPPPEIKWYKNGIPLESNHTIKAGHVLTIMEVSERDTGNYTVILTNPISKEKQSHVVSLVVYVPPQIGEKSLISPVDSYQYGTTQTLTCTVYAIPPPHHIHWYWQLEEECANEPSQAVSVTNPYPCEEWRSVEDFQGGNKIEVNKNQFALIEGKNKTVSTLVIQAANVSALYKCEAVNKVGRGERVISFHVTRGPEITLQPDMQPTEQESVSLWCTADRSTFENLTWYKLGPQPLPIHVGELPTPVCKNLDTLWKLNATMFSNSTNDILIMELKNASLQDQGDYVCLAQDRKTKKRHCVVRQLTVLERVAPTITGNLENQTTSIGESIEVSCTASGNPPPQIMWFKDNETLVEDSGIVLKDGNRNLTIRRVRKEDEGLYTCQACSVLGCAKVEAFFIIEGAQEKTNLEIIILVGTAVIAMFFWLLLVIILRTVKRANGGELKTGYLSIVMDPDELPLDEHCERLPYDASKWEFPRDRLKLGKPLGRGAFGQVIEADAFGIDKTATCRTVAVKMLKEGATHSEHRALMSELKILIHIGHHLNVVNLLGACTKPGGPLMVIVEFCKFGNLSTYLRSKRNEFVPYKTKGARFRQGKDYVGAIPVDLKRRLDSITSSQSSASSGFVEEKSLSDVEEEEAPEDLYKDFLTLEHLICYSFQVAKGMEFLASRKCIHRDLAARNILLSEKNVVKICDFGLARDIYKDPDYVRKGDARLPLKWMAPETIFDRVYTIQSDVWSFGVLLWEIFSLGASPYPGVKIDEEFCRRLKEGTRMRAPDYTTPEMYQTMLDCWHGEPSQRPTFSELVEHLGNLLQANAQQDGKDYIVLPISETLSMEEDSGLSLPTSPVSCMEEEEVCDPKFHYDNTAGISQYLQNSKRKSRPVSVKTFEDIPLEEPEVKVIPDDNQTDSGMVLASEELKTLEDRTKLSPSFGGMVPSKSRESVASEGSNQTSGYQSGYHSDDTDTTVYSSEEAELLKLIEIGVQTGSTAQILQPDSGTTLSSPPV
smiles,measurement,setting,value
"CNc1ncc2cc(-c3ccc(-c4cccc(C)n4)cc3Cl)c(=O)n(C[C@H]3OC[C@H](N)CO3)c2n1 [compound 6, G-5555]",Percent Control,SGK,100%
same,Percent Control,MST1R,48%
same,Percent Control,VEGFR2,93%
same,Percent Control,GRK1,100%
same,Percent Control,WNK3,100%
same,Percent Control,PIKFYVE,100%
same,Percent Control,VPS34,100%
same,Percent Control,CDC2L2,100%
same,Percent Control,PIK3CA(C420R),100%
same,Percent Control,KIT(D816H),100%
same,Percent Control,CSK,85%
same,Percent Control,HIPK4,100%
same,Percent Control,MAP4K4,100%
same,Percent Control,FLT3(N841I),97%
same,Percent Control,"GCN2(Kin.Dom.2,S808G)",63%
same,Percent Control,PKN1,92%
same,Percent Control,CDKL3,100%
same,Percent Control,MATK,100%
same,Percent Control,CDK4-cyclinD3,100%
same,Percent Control,CDK5,98%
same,Percent Control,SRPK2,70%
same,Percent Control,FGFR3,100%
same,Percent Control,AAK1,100%
same,Percent Control,ABL1(T315I),100%
same,Percent Control,DMPK,100%
same,Percent Control,TLK2,100%
same,Percent Control,PIP4K2C,26%
same,Percent Control,NDR1,70%
same,Percent Control,EPHA8,72%
same,Percent Control,CDK4-cyclinD1,99%
